ChEMBL document CHEMBL1142139, “In vitro-clinical correlations for amphotericin B susceptibility in AIDS-associated cryptococcal meningitis” (2007)

System: Cryptococcus neoformans
Experiment: Antimicrobial activity against Cryptococcus neoformans isolates in CSF from meningitis patients after 14 day iv treatment
Type: functional

## C[C@@H]1[C@H](O)[C@@H](C)/C=C/C=C/C=C/C=C/C=C/C=C/C=C/[C@H](O[C@@H]2O[C@H](C)[C@@H](O)[C@H](N)[C@@H]2O)C[C@@H]2O[C@](O)(C[C@@H](O)C[C@@H](O)[C@H](O)CC[C@@H](O)C[C@@H](O)CC(=O)O[C@H]1C)C[C@H](O)[C@H]2C(=O)O [AMPHOTERICIN B]
  CFU/ml: 0
